Measurements taken from paper PMC11166204, “Mapping the global interactome of the ARF family reveals spatial organization in cellular signaling pathways” (Journal of Cell Science, 2024).
pKd: −log10 of the molar value. Where two headings read alike, the source gives them in different places. Each block holds one compound with its values, some of them ahead of it.

Key:
Assay type in all cases: binding
ARL11 = target: T1, ARL11 (Homo sapiens, UniProt Q969Q4); assay: ITC; 1H-15N HSQC NMR
T1 construct: amino acids 1–196 (GST tag cleaved with thrombin)

KRAS [1] = target: T2, KRAS (Homo sapiens, UniProt P01116); assay: co-purified nucleotide by ion-pair reversed-phase HPLC
T2 construct: GFP-tagged, purified from HEK293T cells

ARF1 = target: T3, ARF1 (Homo sapiens, UniProt P84077); assay: as above
T3 construct: GFP-tagged, purified from HEK293T cells

ARL10 [2] = target: T4, ARL10 (Homo sapiens, UniProt Q8N8L6); assay: as above
T4 construct: GFP-tagged, purified from HEK293T cells
T4 sequence (Q8N8L6 1-244): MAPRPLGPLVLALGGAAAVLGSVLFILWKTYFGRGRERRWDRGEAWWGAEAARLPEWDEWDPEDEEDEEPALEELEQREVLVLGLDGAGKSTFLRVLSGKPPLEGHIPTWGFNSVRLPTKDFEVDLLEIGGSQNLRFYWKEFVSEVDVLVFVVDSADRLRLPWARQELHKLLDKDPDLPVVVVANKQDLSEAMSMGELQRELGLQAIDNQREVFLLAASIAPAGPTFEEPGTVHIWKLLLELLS

KRAS [3] = target: T5, KRAS (Homo sapiens, UniProt P01116, Q61L); assay: as above
T5 construct: GFP-tagged, purified from HEK293T cells

ARL10 [4] = target: T4, ARL10; assay: as above; remark: listed apart in the source

T1 sequence (Q969Q4 whole entry, the tested form may be a part): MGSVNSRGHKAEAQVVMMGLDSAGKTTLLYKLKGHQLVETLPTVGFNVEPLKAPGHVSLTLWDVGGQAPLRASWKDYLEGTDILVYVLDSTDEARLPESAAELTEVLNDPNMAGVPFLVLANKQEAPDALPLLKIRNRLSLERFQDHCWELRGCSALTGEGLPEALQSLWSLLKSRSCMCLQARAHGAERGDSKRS
T3 sequence (P84077 2-181): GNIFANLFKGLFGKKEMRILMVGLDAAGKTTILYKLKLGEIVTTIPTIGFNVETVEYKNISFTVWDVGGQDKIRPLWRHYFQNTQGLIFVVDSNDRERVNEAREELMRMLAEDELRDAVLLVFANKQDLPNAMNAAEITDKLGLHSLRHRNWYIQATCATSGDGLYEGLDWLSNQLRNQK

pKd (ARL11; read-out: Kd): 5.76
Structure (SMILES): Nc1nc2c(ncn2[C@@H]2O[C@H](COP(=O)(O)OP(=O)(O)O)[C@@H](O)[C@H]2O)c(=O)[nH]1 [GDP]
co-purified nucleotide by ion-pair reversed-phase HPLC (KRAS [1]): WT KRAS remained GDP loaded, as did WT ARF1 | co-purified nucleotide by ion-pair reversed-phase HPLC (ARF1): WT KRAS remained GDP loaded, as did WT ARF1 | co-purified nucleotide by ion-pair reversed-phase HPLC (ARL10 [2]): WT ARL10 co-precipitated with both GDP and GTP

% GTP (KRAS [3]): 59 % GTP | % GTP (ARL10 [4]): 29 % GTP
Structure (SMILES): Nc1nc2c(ncn2[C@@H]2O[C@H](COP(=O)(O)OP(=O)(O)OP(=O)(O)O)[C@@H](O)[C@H]2O)c(=O)[nH]1 [GTP]

Structure (SMILES): Nc1nc2c(ncn2[C@@H]2O[C@H](COP(=O)(O)OP(=O)(O)OP(O)(O)=S)[C@@H](O)[C@H]2O)c(=O)[nH]1 [GTPγS]
pKd (ARL11): 8.82
